Reference: patent US11884627B2, “Compounds and compositions for treating conditions associated with LPA receptor activity” (Lhotse Bio, Inc., priority 2022, dated 2024)
Read-outs that look alike come from different tables or passages of the source.

Target: T1, human LPA1 (Homo sapiens, UniProt Q92633)
T1 construct: expressed in transfected cells; host or cells: CHO-K1
Experiment: In vitro LPA1 calcium flux antagonist assay - Bioduro protocol
Assay type: cell-based
Conditions: CHO-K1 cells overexpressing human LPA1 and G15a, LPA challenge at EC80
Experimental: In Vitro LPA1 Calcium Flux Antagonist Assay—Bioduro Protocol
CHO-K1 cells overexpressing human LPA1 and G15a were seeded at a total volume of 20 μL (15000 cells/well) into Matrigel pre-coated 384-well plates (corning −3764) and incubated at 37° C. After overnight incubation, the cells were serum starved for 4 h. Assays were performed in dye loading buffer containing 1× Fluo-8 AM (AAT Bioquest, 21080) and 2.5 mM probenecid (Thermo Fisher, 36400) in HBSS/20 mM Hepes. After cell starvation, the medium was replaced with 20 μL of dye loading buffer and incubated at 37° C., for 30 min. Then 5 μL of 5× compound titrated in dye loading buffer was added to the cells and incubated for 30 min followed by LPA challenge at EC80. Calcium mobilization was measured on a FLIPR Tetra (MSD). For LPA EC80 determination, starved cells were incubated with 20 μL of dye loading buffer for 1 h, then 5 μL of 5×LPA titrated in dye loading buffer was added to the cells. Calcium signals induced by LPA was monitors on a FLIPR.
Percentage inhibition is calculated using the following formula: % Inhibition=100%×(1−(mean RFU of test sample−mean RFU of DMSO)/(mean RFU of LPA control−mean RFU of DMSO)).
Table B3 and Table B4 show the biological activity of compounds in in vitro LPA1 Calcium flux antagonist assay—Bioduro protocol.

[1] = calcium mobilization on FLIPR Tetra, read-out: IC50
[2] = Table B3, read-out: Activity (IC50 class)

T1 sequence (Q92633 whole entry): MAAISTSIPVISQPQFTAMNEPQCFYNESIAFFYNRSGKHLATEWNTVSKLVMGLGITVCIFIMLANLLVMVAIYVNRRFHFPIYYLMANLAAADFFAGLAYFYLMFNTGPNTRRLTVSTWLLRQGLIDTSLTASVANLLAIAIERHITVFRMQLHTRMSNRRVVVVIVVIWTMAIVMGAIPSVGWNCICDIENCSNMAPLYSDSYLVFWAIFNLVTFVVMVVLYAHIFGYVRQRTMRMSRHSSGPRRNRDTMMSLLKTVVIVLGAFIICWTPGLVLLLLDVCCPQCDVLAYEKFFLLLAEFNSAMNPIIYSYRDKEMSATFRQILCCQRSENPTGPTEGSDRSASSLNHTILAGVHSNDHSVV

SMILES	IC50 [1] [nM]	IC50 [2] [nM]
CCc1c(-c2ccc(OC3(C(=O)O)CCOCC3)cc2COC2CCCC2)cc(OC)c(C)c1OC [Compound 194]	79.8	< 100
COC(=O)N1CC(Nc2ccc(-c3cc(OC)c(C)c(OC)c3C)c(COC3CCCC3)c2)(C(=O)O)C1 [Compound 195]	760	> 1000
COc1cc(-c2ccc(NC3(C(=O)O)CC(OC)C3)cc2COC2CCCC2)c(C)c(OC)c1C (stereo not drawn) [Compound 196]	30.1	< 100
COc1cc(-c2ccc(NC3(C(=O)O)CC(OC)C3)cc2COC2CCCC2)c(C)c(OC)c1C (stereo not drawn) [Compound 197]	12.5	< 100
COc1cc2c(c(-c3ccc(NC4(C(=O)O)CCOCC4)cc3COC3CCCC3)c1)CCO2 [Compound 198]	232	100 to 1000
COc1cc2c(c(-c3ccc(NC4(C(=O)O)CCOCC4)cc3COC3CCCC3)c1)OCO2 [Compound 199]	3210	> 1000
COc1cc(OC)cc(-c2ccc(NC3(C(=O)O)CCOCC3)cc2CCN2CCCC2=O)c1 [Compound 202]	> 10000	> 1000
CCc1c(-c2ccc(NC3(C(=O)O)CCOCC3)cc2COC2CCCC2)cc(OC)c(C)c1OC [Compound 203]	26	< 100
COc1cc(-c2ccc(NC3(C(=O)O)CCC(OC)CC3)cc2COC2CCCC2)cc(OC)c1C (stereo not drawn) [Compound 205]	1260	> 1000
COc1cc(-c2ccc(NC3(C(=O)O)CCC(O)CC3)cc2COC2CCCC2)cc(OC)c1C (stereo not drawn) [Compound 206]	476	100 to 1000
COc1cc(-c2ccc(NC3(C(=O)O)CCOCC3)cc2COC2CCCC2)c(Cl)c(OC)n1 [Compound 207, 4-((4-(3-chloro-2,6-dimethoxypyridin-4-yl)-3-((cyclopentyloxy)methyl)phenyl)amino)tetrahydro-2H-pyran-4-carboxylic acid]	30.4	< 100
COC(=O)NC1CCC(Nc2ccc(-c3cc(OC)c(C)c(OC)c3)c(COC3CCCC3)c2)(C(=O)O)CC1 (stereo not drawn) [Compound 208]	56.4	< 100
COc1cc(-c2ccc(OC3(C(=O)O)CCOCC3)cc2COC2CCCC2)c(F)c(OC)c1C [Compound 209, 4-((2-((cyclopentyloxy)methyl)-2′-fluoro-3′,5′-dimethoxy-4′-methyl-[1,1′-biphenyl]-4-yl)oxy)tetrahydro-2H-pyran-4-carboxylic acid]	15.5	< 100
COC(=O)N1CCCC(Nc2cc(C)c(-c3cc(OC)cc(OC)c3)c(COC3CCCC3)c2)(C(=O)O)C1 (stereo not drawn) [Compound 210]	> 10000	> 1000
COC(=O)N1CCCC(Nc2cc(C)c(-c3cc(OC)cc(OC)c3)c(COC3CCCC3)c2)(C(=O)O)C1 (stereo not drawn) [Compound 211]	> 10000	> 1000
COc1cc(-c2ccc(NC3(C(=O)O)CCOCC3)cc2COC2(C)CCCC2)c(C)c(OC)c1C [Compound 212]	11.2	< 100
CCOC1CC(Nc2ccc(-c3cc(OC)c(C)c(OC)c3C)c(COC3CCCC3)c2)(C(=O)O)C1 (stereo not drawn) [Compound 213]	58.7	< 100
CCOC1CC(Nc2ccc(-c3cc(OC)c(C)c(OC)c3C)c(COC3CCCC3)c2)(C(=O)O)C1 (stereo not drawn) [Compound 214]	58.9	< 100
COc1cc(-c2ccc(NC3(C(=O)O)CCOCC3)cc2COC2CCCC2)c(C(F)F)c(OC)c1C [Compound 215]	10.8	< 100
COc1cc(-c2ccc(NC3(C(=O)O)CCOCC3)cc2COC2CCCC2)cc(O)n1 [Compound 218]	> 10000	> 1000
COc1cc(-c2ccc(NC3(C(=O)O)CCOCC3)cc2COC2CCC3(CC3)C2)cc(OC)c1C (stereo not drawn) [Compound 219]	58	< 100
COc1cc(-c2ccc(NC3(C(=O)O)CCOCC3)cc2COC2CCCC2)c(OC)c(OC)c1C [Compound 220]	81.6	100 to 1000
COc1cc(OC)c(F)c(-c2ccc(OC3(C(=O)O)CCOCC3)cc2COC2CCCC2)c1 [Compound 222]	167	100 to 1000
COc1cc(-c2ccc(NC3(C(=O)O)C[C@@H](C)O[C@@H](C)C3)cc2COC2CCCC2)c(F)c(OC)c1C (stereo partly drawn) [Compound 225, (2R,6S)-4-((2-((cyclopentyloxy)methyl)-2′-fluoro-3′,5′-dimethoxy-4′-methyl-[1,1′-biphenyl]-4-yl)amino)-2,6-dimethyltetrahydro-2H-pyran-4-carboxylic acid]	320	100 to 1000

SMILES	IC50 [1] [nM]	IC50 [2] [nM]
COc1cc(OC)c(F)c(-c2ccc(NC3(C(=O)O)CCOCC3)cc2COC2CCCC2)c1 [Compound 226]	22.2	< 100
COc1cc(-c2ccc(NC3(C(=O)O)CCOCC3)c(F)c2COC2CCCC2)c(F)c(OC)c1C [Compound 227]	25	< 100
COc1cc(OC)c(F)c(-c2ccc(NC3(C(=O)O)CCOCC3)cc2CCC2CCCC2)c1 [Compound 228]	2.63	< 100
CCOc1cccc(-c2ccc(NC3(C(=O)O)CCOCC3)cc2COC2CCCC2)c1C [Compound 229, 4-((2-((cyclopentyloxy)methyl)-3′-ethoxy-2′-methyl-[1,1′-biphenyl]-4-yl)amino)tetrahydro-2H-pyran-4-carboxylic acid]	5.28	< 100
COc1cc(-c2ccc(OC3(C(=O)O)CCOCC3)cc2COC2CCCC2)c(Cl)c(OC)n1 [Compound 230]	139	100 to 1000
COc1cc(-c2ccc(OCC3(C(=O)O)CCOCC3)cc2COC2CCCC2)c(F)c(OC)c1C [Compound 232]	756	100 to 1000
COc1cc(-c2c(CC#N)cc(NC3(C(=O)O)CCOCC3)cc2COC2CCCC2)cc(OC)c1C [Compound 233]	914	100 to 1000
COc1cc(-c2ccc(C3(C(=O)O)CCOCC3)cc2COC2CCCC2)cc(OC)c1C [Compound 234]	5190	> 1000
COc1cc(-c2ccc(C3(C(=O)O)CCOCC3)cc2COC2CCCC2)c(Cl)c(OC)c1C [Compound 235]	198	100 to 1000
COc1cc(-c2ccc(CC3(C(=O)O)CCOCC3)cc2COC2CCCC2)c(Cl)c(OC)c1C [Compound 236]	4710	> 1000
COc1cc(-c2ccc(N(C)C3(C(=O)O)CCOCC3)cc2COC2CCCC2)c(F)c(OC)c1C [Compound 239]	970	100 to 1000
COc1cc(-c2ccc(NC3(C(=O)O)CCOCC3)cc2COC2CCCC2)c(F)c(C2CC2)c1 [Compound 240]	23.4	< 100
COc1cc(-c2cc(F)c(NC3(C(=O)O)CCOCC3)cc2COC2CCCC2)c(F)c(OC)c1C [Compound 243]	82.9	100 to 1000
CCOc1cccc(-c2ccc(NC3(C(=O)O)CCOCC3)cc2COC2CCCC2)c1C(F)F [Compound 244]	2.73	< 100
CCOc1cccc(-c2ccc(NC3(C(=O)O)CCOCC3)cc2COC2CCCC2)c1F [Compound 245, 4-((2-((cyclopentyloxy)methyl)-3′-ethoxy-2′-fluoro-[1,1′-biphenyl]-4-yl)amino)tetrahydro-2H-pyran-4-carboxylic acid]	23.2	< 100
CCOc1cc(OC)cc(-c2ccc(OC3(C(=O)O)CCOCC3)cc2COC2CCCC2)c1F [Compound 246]	24.3	< 100
COc1cc(-c2ccc(OC3(C(=O)O)CCOCC3)cc2CO[C@@H]2CCOC2)c(F)c(OC)c1C [Compound 247]	1610	> 1000
COc1cc(OC2CC2)c(F)c(-c2ccc(NC3(C(=O)O)CCOCC3)cc2COC2CCCC2)c1 [Compound 249, 4-((2-((cyclopentyloxy)methyl)-3′-cyclopropoxy-2′-fluoro-5′-methoxy-[1,1′-biphenyl]-4-yl)amino)tetrahydro-2H-pyran-4-carboxylic acid]	1.13	< 100
COc1cc(OC2CC2)cc(-c2ccc(NC3(C(=O)O)CCOCC3)cc2COC2CCCC2)c1F [Compound 250]	31.7	< 100
COc1cc(C2CC2)cc(-c2ccc(NC3(C(=O)O)CCOCC3)cc2COC2CCCC2)c1F [Compound 251]	40.2	< 100
COc1cc(-c2c(C)cc(NC3(C(=O)O)CCOCC3)cc2COC2CCCC2)nc(OC)c1C [Compound 253, 4-((3-((cyclopentyloxy)methyl)-4-(4,6-dimethoxy-5-methylpyridin-2-yl)-5-methylphenyl)amino)tetrahydro-2H-pyran-4-carboxylic acid]	54.3	< 100
COc1cc(OC)c(Cl)c(-c2ccc(NC3(C(=O)O)CCOCC3)cc2COC2CCCC2)c1 [Compound 257]	8.41	< 100
COc1cc(-c2ccc(OC3(C(=O)O)CCOCC3)cc2CCC2CCOC2)c(F)c(OC)c1C (stereo not drawn) [Compound 260]	174	100 to 1000
COc1cc(-c2ccc(NC3(C(=O)O)CCOCC3)cc2COC2CCCC2)c(Cl)c(OC)c1F [Compound 261]	51.9	< 100
